Our source for the GI50 and TGI values is PubChem BioAssay (NCI).

Among the test systems are HCC-2998 colon; K-562 leukemia; NCI-H23 lung; NCI-H460 lung; NCI-H522 lung; RPMI-8226 leukemia; RXF 393 renal; SK-MEL-28 melanoma; SW-620 colon; UO-31 renal.
Assay in all cases: growth of human tumour cells (NCI), 48 h

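A five-concentration, 48-hour dose response in 96-well plates underlies each endpoint, interpolated linearly between surrounding concentrations. GI50 marks 50% less growth. TGI is the concentration that stops growth completely.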

Take `CCOC(=O)C1=C(C)NC2SC(=O)/C(=C\c3ccccc3)N2C1c1ccccc1` (centres undefined): the GI50 in the assay on HCC-2998 colon was > 100 µM; in the assay on K-562 leukemia it was 51.8 µM; in the assay on NCI-H23 lung, > 100 µM; in the assay with NCI-H460 lung it was 93.5 µM; with NCI-H522 lung it was > 100 µM; with RPMI-8226 leukemia, 33.5 µM. In addition, the GI50 in the assay on RXF 393 renal, with SK-MEL-28 melanoma, in the assay on SW-620 colon and with UO-31 renal was > 100 µM in each case. Moreover, the TGI in the assay on HCC-2998 colon, in the assay on K-562 leukemia, in the assay with NCI-H23 lung, in the assay on NCI-H460 lung, with NCI-H522 lung and with RPMI-8226 leukemia was > 100 µM each time. Also, the TGI in the assay with RXF 393 renal, with SK-MEL-28 melanoma, in the assay with SW-620 colon and in the assay on UO-31 renal was > 100 µM in each case.

In the case of `C/C(=C\CCc1ccoc1)CC/C=C(\C)CCCN1CCC(CO)CC1`, the GI50 with HCC-2998 colon was 2.1 µM; in the assay with K-562 leukemia it was 1.52 µM; with NCI-H23 lung, 3.78 µM; in the assay with NCI-H460 lung, 2.08 µM; in the assay on NCI-H522 lung, 2.17 µM; in the assay with RPMI-8226 leukemia it was 2.03 µM. In addition, the GI50 in the assay with RXF 393 renal is 1.54 µM; in the assay with SK-MEL-28 melanoma, 1.89 µM; in the assay on SW-620 colon, 2.06 µM; in the assay with UO-31 renal it was 3.85 µM. Further, the TGI in the assay on HCC-2998 colon came out at 4.03 µM; in the assay with K-562 leukemia it was 3.86 µM; in the assay on NCI-H23 lung it was 14.7 µM; in the assay with NCI-H460 lung it was 4.37 µM; in the assay with NCI-H522 lung it was 5.83 µM; in the assay on RPMI-8226 leukemia, 4.48 µM. In addition, the TGI was 4.26 µM with RXF 393 renal, 4.03 µM in the assay with SK-MEL-28 melanoma, 5.08 µM in the assay with SW-620 colon and 16.7 µM in the assay on UO-31 renal.

On to `N#CN1CCC[C@H]1C(=O)N1CCc2c(-c3[nH]nc4ncccc34)cccc21`, for which the GI50 in the assay on HCC-2998 colon is 0.12 µM; with K-562 leukemia, < 0.01 µM; in the assay on NCI-H23 lung, < 0.01 µM; in the assay with NCI-H460 lung, 0.105 µM; with NCI-H522 lung, < 0.01 µM; in the assay on RPMI-8226 leukemia, < 0.01 µM. Further, the GI50 is < 0.01 µM with RXF 393 renal, < 0.01 µM in the assay on SK-MEL-28 melanoma, < 0.01 µM with SW-620 colon and 0.0431 µM in the assay with UO-31 renal. Also, the TGI was 11.6 µM in the assay on HCC-2998 colon; > 37.8 µM with K-562 leukemia; 17.3 µM with NCI-H23 lung; 11.1 µM in the assay on NCI-H460 lung; 0.412 µM in the assay with NCI-H522 lung; 7.47 µM with RPMI-8226 leukemia. Besides, the TGI was found to be 0.145 µM with RXF 393 renal, 13.9 µM in the assay on SK-MEL-28 melanoma, 13.5 µM in the assay on SW-620 colon and 5.11 µM with UO-31 renal.

Regarding `Cc1nc(/N=C(\N)NC(=O)Nc2ccccc2Cl)sc1C`, the GI50 in the assay with HCC-2998 colon was 1.25 µM; in the assay on K-562 leukemia, 0.0861 µM; in the assay on NCI-H23 lung it was 0.687 µM; with NCI-H460 lung, 0.367 µM; in the assay on NCI-H522 lung, 0.189 µM; with RPMI-8226 leukemia it was 0.406 µM. Further, the GI50 is 0.399 µM with RXF 393 renal, 0.916 µM in the assay on SK-MEL-28 melanoma, 0.329 µM in the assay on SW-620 colon and 0.857 µM with UO-31 renal. In addition, the TGI was > 100 µM with HCC-2998 colon; > 100 µM in the assay on K-562 leukemia; > 74.9 µM in the assay on NCI-H23 lung; 1.62 µM in the assay with NCI-H460 lung; 7.65 µM in the assay on RPMI-8226 leukemia; 2.11 µM in the assay with RXF 393 renal. The TGI in the assay on SK-MEL-28 melanoma is > 100 µM; in the assay on SW-620 colon, > 100 µM; with UO-31 renal, 6.49 µM.

With `C[C@H]1CC[C@@H]2[C@@H](C)[C@H]3[C@H](C[C@H]4[C@@H]5CC=C6C[C@@H](O)CC[C@]6(C)[C@H]5C[C@H](O)[C@]34C)N2C1`, the TGI with HCC-2998 colon, in the assay on K-562 leukemia, in the assay with NCI-H23 lung, in the assay with NCI-H460 lung, in the assay on NCI-H522 lung and with RPMI-8226 leukemia was > 100 µM throughout. Moreover, the TGI with RXF 393 renal, with SK-MEL-28 melanoma, in the assay with SW-620 colon and in the assay on UO-31 renal was > 100 µM each time.

As for `N#Cc1cccc(NC(=O)c2oc3ccccc3c2-c2cnn(-c3ccccc3)c2)c1`, the GI50 in the assay on HCC-2998 colon, in the assay on K-562 leukemia, in the assay on NCI-H23 lung, in the assay on NCI-H460 lung, in the assay on NCI-H522 lung and in the assay on RPMI-8226 leukemia was > 500 µM each time. For the same molecule, the GI50 in the assay on RXF 393 renal was 185 µM; with SK-MEL-28 melanoma it was > 500 µM; in the assay with SW-620 colon, > 500 µM; in the assay with UO-31 renal, 41.2 µM. The TGI in the assay with HCC-2998 colon, in the assay on K-562 leukemia, in the assay on NCI-H23 lung, with NCI-H460 lung, with NCI-H522 lung and in the assay on RPMI-8226 leukemia was > 500 µM each time. Further, the TGI with RXF 393 renal, in the assay on SK-MEL-28 melanoma, with SW-620 colon and in the assay on UO-31 renal was > 500 µM in each case.

Regarding `C[C@H]1CC(=O)C2=CCCC3(SCCCS3)[C@@H]2[C@H]1CO`, the TGI in the assay with HCC-2998 colon, in the assay with K-562 leukemia, in the assay with NCI-H23 lung, with NCI-H460 lung, in the assay with NCI-H522 lung and in the assay with RPMI-8226 leukemia was > 100 µM in each case. The TGI with RXF 393 renal, with SK-MEL-28 melanoma, in the assay with SW-620 colon and with UO-31 renal was > 100 µM throughout.

For `COc1c(CNC(=O)CCl)cc2[nH]c(C)cc2c1CNC(=O)CCl`, the GI50 is 13.2 µM in the assay with HCC-2998 colon; 8.42 µM in the assay on K-562 leukemia; 7.14 µM in the assay on NCI-H23 lung; 3.73 µM in the assay with NCI-H460 lung; 1.82 µM in the assay on NCI-H522 lung; 5.17 µM in the assay on RPMI-8226 leukemia. Besides, the GI50 is 3.5 µM with RXF 393 renal, 5.44 µM in the assay with SK-MEL-28 melanoma, 5.61 µM with SW-620 colon and 15.7 µM with UO-31 renal. For the same molecule, the TGI in the assay with HCC-2998 colon is 30.4 µM; in the assay on K-562 leukemia, > 100 µM; with NCI-H23 lung, 31.3 µM; in the assay on NCI-H460 lung it was 15.6 µM; in the assay with NCI-H522 lung, 4.16 µM; in the assay with RPMI-8226 leukemia, 52.8 µM. Besides, the TGI in the assay on RXF 393 renal amounted to 14.1 µM; in the assay with SK-MEL-28 melanoma, 29.8 µM; in the assay on SW-620 colon, 20.7 µM; in the assay with UO-31 renal, 56.7 µM.
